Values after ≈ are worked out from the molar mass of the structure shown.
System: not listed separately
Assay: MTT cytotoxicity assay
Type: cell-based
Conditions: LO2 normal liver cells, human normal liver cells (L02), mean of three experiments
N#Cc1c(-c2c[nH]c3ccccc23)cc(-c2ccc(OC(F)(F)F)cc2)nc1N [Compound 40] showed an IC50 of over 70 µg/mL.

System: Mycobacterium tuberculosis H37RV
Assay: In vitro antitubercular activity by MABA (Alamar Blue)
Type: cell-based
Conditions: Mycobacterium tuberculosis H37RV, MABA, Middlebrook 7H9 broth, 37°C five days
With N#Cc1c(-c2c[nH]c3ccccc23)cc(-c2ccc(OC(F)(F)F)cc2)nc1N [Compound 40] the “H37RV MIC” value was ~ 8 µM.

Same assay, conditions: Mycobacterium tuberculosis H37RV, MABA, Middlebrook 7H9 broth, 37°C five days; read-out: H37RV MIC
N#Cc1c(-c2ccc[nH]2)cc(-c2ccc(C(F)(F)F)cc2)nc1N [Compound 30] showed an MIC of 17 µM (≈ 5.58 µg/mL). NC(=O)c1cnccn1 [Pyrazinamide, reference compound] showed an MIC of 25 µM (≈ 3.08 µg/mL). N#Cc1c(-c2cccs2)cc(-c2ccc(OC(F)(F)F)cc2)nc1N [Compound 36] showed an MIC of 31 µM (≈ 11.2 µg/mL). For N#Cc1c(-c2c[nH]c3ccccc23)cc(-c2ccc(OC(F)(F)F)cc2)nc1N [Compound 40], the MIC was 8 µM (≈ 3.15 µg/mL). N#CC1=C(N)OC(c2ccc(OC(F)(F)F)cc2)=CC1c1ccc[nH]1 (centres unmarked) [Compound 60] gave an MIC of 16 µM (≈ 5.56 µg/mL). Compound N#Cc1c(-c2c[nH]c3ccccc23)cc(-c2ccc(OC(F)(F)F)cc2)nc1N [Compound 33] has an MIC of 30 µM (≈ 11.8 µg/mL). Work on [H]/N=C(/N)N[C@H]1[C@H](O)[C@@H](O)[C@H](O[C@@H]2O[C@@H](C)[C@](O)(C=O)[C@H]2O[C@@H]2O[C@@H](CO)[C@H](O)[C@@H](O)[C@@H]2NC)[C@@H](N/C(N)=N\[H])[C@@H]1O [Streptomycin, reference compound] yielded an MIC of 11 µM (≈ 6.4 µg/mL). In the case of N#CC1=C(N)OC(c2ccc(OC(F)(F)F)cc2)=CC1c1cccc(Cl)c1Cl (centres unmarked) [Compound 51], the MIC is reported as 16 µM (≈ 6.84 µg/mL). Compound N#Cc1c(-c2cccs2)cc(-c2ccc(C(F)(F)F)cc2)nc1N [Compound 27] has an MIC of 18 µM (≈ 6.22 µg/mL). Work on N#CC1=C(N)OC(c2ccc(C(F)(F)F)cc2)=CC1c1ccccc1Cl (centres unmarked) [Compound 41] yielded an MIC of 17 µM (≈ 6.41 µg/mL). Work on N#Cc1c(-c2cccs2)cc(-c2ccc(C(F)(F)F)cc2)nc1N [Compound 26] yielded an MIC of 33 µM (≈ 11.4 µg/mL). For N#CC1=C(N)OC(c2ccc(C(F)(F)F)cc2)=CC1c1ccc[nH]1 (centres unmarked) [Compound 50], the MIC was 16 µM (≈ 5.3 µg/mL). Compound O=C(O)c1cn(C2CC2)c2cc(N3CCNCC3)c(F)cc2c1=O [Ciprofloxacin, reference compound] has an MIC of 9 µM (≈ 2.98 µg/mL).

Same assay, conditions: Mycobacterium tuberculosis, H37RV, 120 h, Mycobacterium tuberculosis H37RV, MABA, Middlebrook 7H9 broth, 37°C five days; read-out: H37RV MIC
O=C(/C=C/c1ccccc1Cl)c1ccc(C(F)(F)F)cc1 [Compound 1] gave an MIC of 40 µM (≈ 12.4 µg/mL). N#Cc1c(-c2ccc[nH]2)cc(-c2ccc(C(F)(F)F)cc2)nc1N [Compound 30] gave an MIC of 16 to 18 µM (≈ 5.25 to 5.91 µg/mL). In the case of N#Cc1c(-c2cccc([N+](=O)[O-])c2)cc(-c2ccc(C(F)(F)F)cc2)nc1N [Compound 25], the MIC is reported as 130 µM (≈ 50 µg/mL). With N#CC1=C(N)OC(c2ccc(C(F)(F)F)cc2)=CC1c1ccc(Cl)cc1 (centres unmarked) [Compound 48] the MIC was 38 µM (≈ 14.3 µg/mL). With O=C(/C=C/c1ccc[nH]1)c1ccc(OC(F)(F)F)cc1 [Compound 20] the MIC was 38 µM (≈ 10.7 µg/mL). O=C(/C=C/c1ccc([N+](=O)[O-])cc1)c1ccc(OC(F)(F)F)cc1 [Compound 19] showed an MIC of 178 µM (≈ 60 µg/mL). With O=C(/C=C/c1cccc(Cl)c1)c1ccc(C(F)(F)F)cc1 [Compound 2] the MIC was 161 µM (≈ 50 µg/mL). O=C(/C=C/c1ccc(Cl)cc1)c1ccc(C(F)(F)F)cc1 [Compound 8] gave an MIC of 188 µM (≈ 58.4 µg/mL). Work on N#CC1=C(N)OC(c2ccc(OC(F)(F)F)cc2)=CC1c1ccc(Cl)cc1 (centres unmarked) [Compound 58] yielded an MIC of 36 µM (≈ 14.1 µg/mL). With N#Cc1c(-c2cccc(Cl)c2)cc(-c2ccc(C(F)(F)F)cc2)nc1N [Compound 22] the MIC was 134 µM (≈ 50.1 µg/mL). For N#Cc1c(-c2cccc(Cl)c2)cc(-c2ccc(OC(F)(F)F)cc2)nc1N [Compound 32], the MIC was 128 µM (≈ 49.9 µg/mL). Compound O=C(/C=C/c1ccc(Cl)cc1)c1ccc(OC(F)(F)F)cc1 [Compound 18] has an MIC of 177 µM (≈ 57.8 µg/mL). N#Cc1c(-c2ccccc2[N+](=O)[O-])cc(-c2ccc(OC(F)(F)F)cc2)nc1N [Compound 34] gave an MIC of 31 µM (≈ 12.4 µg/mL). With NC(=O)c1cnccn1 [Pyrazinamide, reference compound] the MIC was about 25 µM (≈ 3.08 µg/mL). In the case of N#Cc1c(-c2cccc([N+](=O)[O-])c2)cc(-c2ccc(OC(F)(F)F)cc2)nc1N [Compound 35], the MIC is reported as 125 µM (≈ 50 µg/mL). Work on O=C(/C=C/c1ccc[nH]1)c1ccc(C(F)(F)F)cc1 [Compound 10] yielded an MIC of 40 µM (≈ 10.6 µg/mL). N#Cc1c(-c2cccs2)cc(-c2ccc(OC(F)(F)F)cc2)nc1N [Compound 37] gave an MIC of 17 µM (≈ 6.14 µg/mL). N#CC1=C(N)OC(c2ccc(OC(F)(F)F)cc2)=CC1c1ccc[nH]1 (centres unmarked) [Compound 60] gave an MIC of 16 to 18 µM (≈ 5.56 to 6.25 µg/mL). With N#Cc1c(-c2c[nH]c3ccccc23)cc(-c2ccc(C(F)(F)F)cc2)nc1N [Compound 23] the MIC was 31 µM (≈ 11.7 µg/mL). Compound N#CC1=C(N)OC(c2ccc(C(F)(F)F)cc2)=CC1c1ccccc1[N+](=O)[O-] (centres unmarked) [Compound 44] has an MIC of 32 µM (≈ 12.4 µg/mL). Work on N#Cc1c(-c2ccc([N+](=O)[O-])cc2)cc(-c2ccc(C(F)(F)F)cc2)nc1N [Compound 29] yielded an MIC of 152 µM (≈ 58.4 µg/mL). N#CC1=C(N)OC(c2ccc(OC(F)(F)F)cc2)=CC1c1cccc([N+](=O)[O-])c1 (centres unmarked) [Compound 55] showed an MIC of 124 µM (≈ 50 µg/mL). Work on O=C(/C=C/c1cccs1)c1ccc(C(F)(F)F)cc1 [Compound 6] yielded an MIC of 156 µM (≈ 44 µg/mL). For N#Cc1c(-c2ccccc2[N+](=O)[O-])cc(-c2ccc(C(F)(F)F)cc2)nc1N [Compound 24], the MIC was 33 µM (≈ 12.7 µg/mL). With N#CC1=C(N)OC(c2ccc(C(F)(F)F)cc2)=CC1c1cccc([N+](=O)[O-])c1 (centres unmarked) [Compound 45] the MIC was 129 µM (≈ 50 µg/mL). In the case of N#CC1=C(N)OC(c2ccc(OC(F)(F)F)cc2)=CC1c1ccc([N+](=O)[O-])cc1 (centres unmarked) [Compound 59], the MIC is reported as 144 µM (≈ 58.1 µg/mL). Work on N#Cc1c(-c2ccc([N+](=O)[O-])cc2)cc(-c2ccc(OC(F)(F)F)cc2)nc1N [Compound 39] yielded an MIC of 145 µM (≈ 58 µg/mL). [H]/N=C(/N)N[C@H]1[C@H](O)[C@@H](O)[C@H](O[C@@H]2O[C@@H](C)[C@](O)(C=O)[C@H]2O[C@@H]2O[C@@H](CO)[C@H](O)[C@@H](O)[C@@H]2NC)[C@@H](N/C(N)=N\[H])[C@@H]1O [Streptomycin, reference compound] showed an MIC of about 11 µM (≈ 6.4 µg/mL). In the case of N#CC1=C(N)OC(c2ccc(OC(F)(F)F)cc2)=CC1c1cccc(Cl)c1Cl (centres unmarked) [Compound 51], the MIC is reported as 16 to 18 µM (≈ 6.84 to 7.69 µg/mL). N#CC1=C(N)OC(c2ccc(C(F)(F)F)cc2)=CC1c1ccco1 (centres unmarked) [Compound 47] showed an MIC of 36 µM (≈ 12 µg/mL). Work on O=C(/C=C/c1cccc(Cl)c1)c1ccc(OC(F)(F)F)cc1 [Compound 12] yielded an MIC of 153 µM (≈ 50 µg/mL). For O=C(/C=C/c1c[nH]c2ccccc12)c1ccc(OC(F)(F)F)cc1 [Compound 13], the MIC was 138 µM (≈ 45.7 µg/mL). In the case of O=C(/C=C/c1ccccc1[N+](=O)[O-])c1ccc(C(F)(F)F)cc1 [Compound 4], the MIC is reported as 156 µM (≈ 50.1 µg/mL). O=C(/C=C/c1cccc(Cl)c1Cl)c1ccc(OC(F)(F)F)cc1 [Compound 11] showed an MIC of 153 µM (≈ 55.3 µg/mL). O=C(/C=C/c1cccs1)c1ccc(OC(F)(F)F)cc1 [Compound 16] gave an MIC of 148 µM (≈ 44.1 µg/mL). In the case of N#Cc1c(-c2cccc(Cl)c2Cl)cc(-c2ccc(C(F)(F)F)cc2)nc1N [Compound 21], the MIC is reported as 33 µM (≈ 13.5 µg/mL). With N#CC1=C(N)OC(c2ccc(OC(F)(F)F)cc2)=CC1c1ccccc1[N+](=O)[O-] (centres unmarked) [Compound 54] the MIC was 31 µM (≈ 12.5 µg/mL). N#CC1=C(N)OC(c2ccc(OC(F)(F)F)cc2)=CC1c1c[nH]c2ccccc12 (centres unmarked) [Compound 53] gave an MIC of 29 µM (≈ 11.5 µg/mL). Work on N#CC1=C(N)OC(c2ccc(C(F)(F)F)cc2)=CC1c1cccc(Cl)c1 (centres unmarked) [Compound 42] yielded an MIC of 133 µM (≈ 50.1 µg/mL). Work on N#Cc1c(-c2ccc(Cl)cc2)cc(-c2ccc(OC(F)(F)F)cc2)nc1N [Compound 38] yielded an MIC of 36 µM (≈ 14 µg/mL). N#CC1=C(N)OC(c2ccc(C(F)(F)F)cc2)=CC1c1cccs1 (centres unmarked) [Compound 46] showed an MIC of 32 µM (≈ 11.1 µg/mL). O=C(/C=C/c1ccccc1[N+](=O)[O-])c1ccc(OC(F)(F)F)cc1 [Compound 14] gave an MIC of 148 µM (≈ 49.9 µg/mL). O=C(/C=C/c1ccco1)c1ccc(OC(F)(F)F)cc1 [Compound 17] showed an MIC of 168 µM (≈ 47.4 µg/mL). In the case of O=C(/C=C/c1cccc([N+](=O)[O-])c1)c1ccc(OC(F)(F)F)cc1 [Compound 15], the MIC is reported as 148 µM (≈ 49.9 µg/mL). Compound N#CC1=C(N)OC(c2ccc(OC(F)(F)F)cc2)=CC1c1cccc(Cl)c1 (centres unmarked) [Compound 52] has an MIC of 127 µM (≈ 49.9 µg/mL). In the case of N#CC1=C(N)OC(c2ccc(C(F)(F)F)cc2)=CC1c1ccccc1Cl (centres unmarked) [Compound 41], the MIC is reported as 16 to 18 µM (≈ 6.03 to 6.78 µg/mL). N#Cc1c(-c2ccc(Cl)cc2)cc(-c2ccc(C(F)(F)F)cc2)nc1N [Compound 28] gave an MIC of 38 µM (≈ 14.2 µg/mL). Compound N#CC1=C(N)OC(c2ccc(C(F)(F)F)cc2)=CC1c1c[nH]c2ccccc12 (centres unmarked) [Compound 43] has an MIC of 30 µM (≈ 11.4 µg/mL). With N#CC1=C(N)OC(c2ccc(C(F)(F)F)cc2)=CC1c1ccc[nH]1 (centres unmarked) [Compound 50] the MIC was 16 to 18 µM (≈ 5.3 to 5.96 µg/mL). N#CC1=C(N)OC(c2ccc(C(F)(F)F)cc2)=CC1c1ccc([N+](=O)[O-])cc1 (centres unmarked) [Compound 49] showed an MIC of 151 µM (≈ 58.5 µg/mL). Work on O=C(/C=C/c1c[nH]c2ccccc12)c1ccc(C(F)(F)F)cc1 [Compound 3] yielded an MIC of 145 µM (≈ 45.7 µg/mL). O=C(/C=C/c1ccc([N+](=O)[O-])cc1)c1ccc(C(F)(F)F)cc1 [Compound 9] gave an MIC of 189 µM (≈ 60.7 µg/mL). With N#CC1=C(N)OC(c2ccc(OC(F)(F)F)cc2)=CC1c1cccs1 (centres unmarked) [Compound 56] the MIC was 31 µM (≈ 11.3 µg/mL). With O=C(/C=C/c1cccc([N+](=O)[O-])c1)c1ccc(C(F)(F)F)cc1 [Compound 5] the MIC was 155 µM (≈ 49.8 µg/mL). Work on O=C(O)c1cn(C2CC2)c2cc(N3CCNCC3)c(F)cc2c1=O [Ciprofloxacin, reference compound] yielded an MIC of about 9 µM (≈ 2.98 µg/mL). Work on N#Cc1c(-c2cccc(Cl)c2Cl)cc(-c2ccc(OC(F)(F)F)cc2)nc1N [Compound 31] yielded an MIC of 32 µM (≈ 13.6 µg/mL). In the case of N#CC1=C(N)OC(c2ccc(OC(F)(F)F)cc2)=CC1c1ccco1 (centres unmarked) [Compound 57], the MIC is reported as 34 µM (≈ 11.8 µg/mL).

Same assay, conditions: Mycobacterium tuberculosis, H37RV, 120 h, read-out: H37RV MIC
With O=C(/C=C/c1ccco1)c1ccc(C(F)(F)F)cc1 [Compound 7] the MIC was 177 µM (≈ 47.1 µg/mL).

Same assay, conditions: ratio of MIC, H37RV
In the case of N#Cc1c(-c2c[nH]c3ccccc23)cc(-c2ccc(OC(F)(F)F)cc2)nc1N [Compound 40], the “Potency relative to pyrazinamide” value is reported as 3 fold.

— article PMC9202851, “Antitubercular activity assessment of fluorinated chalcones, 2-aminopyridine-3-carbonitrile and 2-amino-4H-pyran-3-carbonitrile derivatives: In vitro, molecular docking and in-silico drug likeliness studies” (PLoS ONE, 2022)
